Test system: human fibroblasts wild type
Assay: MTT cytotoxicity test
Type: cell-based
Conditions: prolonged incubation at 100 and 50 μM
Experimental: The MTT test was carried out using the human fibroblasts wild type at different concentrations of compound 33·HCl. Fibroblasts were grown in the presence of Dulbecco’s modified Eagle’s medium supplemented with 10% fetal bovine serum (FBS), 1% glutamine, and 1% penicillin–streptomycin, at 37 °C in controlled atmosphere with 5% CO2. For the experiments, cells were seeded at a density of 20,000 cells per well in 24-well plates and grown for 24 h (or 48 h) before adding the compound. The compound was dissolved in water; then, aliquots of these were diluted in the growth medium. To preserve sterility of solutions, these were filtered with 0.22 μm filters before adding to the dishes containing fibroblasts. Then, cells were incubated at 37 °C in 5% CO2 for 24 h (or 48 h). After this time, the media were replaced with medium containing 0.5 mg/mL of 3-(4,5-dimethylthiazol-2-yl)-2,5-diphenyltetrazolium bromide (MTT); the cells were incubated for an additional 1 h at 37 °C in 5% CO2. Finally, the number of viable cells was quantified by the estimation of their dehydrogenase activity, which reduces MTT to water-insoluble formazan. […] The quantitation was carried out measuring the absorbance of samples at 570 nm with the iMark microplate absorbance reader (BIO RAD) in a 96-well format. […]
33.HCl at different concentrations. After this time, the viability of cells was evaluated using MMT assay. […]

CCCCCCCC[C@@H]1[C@@H](O)[C@H](O)[C@H](O)CN1C(CCCCCCC)CCCCCCC.Cl [compound 33·HCl, (2R,3R,4R,5R)-2-Octyl-1-(pentadecan-8-yl)-piperidine-3,4,5-triol Hydrochloride]
cytotoxicity (MTT test): remarkable cytotoxicity

Reference: PMC8453635, “Piperidine Azasugars Bearing Lipophilic Chains: Stereoselective Synthesis and Biological Activity as Inhibitors of Glucocerebrosidase (GCase)” (The Journal of Organic Chemistry, 2021)
